Data taken from patent US5439816A, “Carboxymethylcellulase isolated from bacillus sp. PKM-5430 (FERM BP-4087)” (Kao Corporation, priority 1991, dated 1995).

How the values were obtained:
[1] = tested on: Carboxymethylcellulase 5430; test: Substrate specificity of Carboxymethylcellulase 5430 (hydrolytic activities, DNS method / p-nitrophenol release); type: biochemical, Bacillus sp. PKM-5430
Description: (§1) Activities were determined by the DNS method (J. R. Summer and G. F. Somers, Laboratory Experiments in Biological Chemistry, Academic Press, New York, U.S.A., 1944). Namely, 0.1 ml of a suitably diluted enzyme solution was added to 0.9 ml of a 1.1% (w/v) solution of a CMC (A01MC) substrate in 0.1M glycine-NaOH buffer (pH: 9.0). After a 20-minute reaction at 40° C., 1 ml of 0.05% (w/v) 3,5-dinitrosalicylic acid solution (product of Wako Pure Chemical Industries, Ltd.) was added, and the resulting mixture was immediately placed in a boiling water bath for 5 minutes, followed by cooling in an iced water bath. Then, 4 ml of deionized water was added further, afterwhich, colorimetry was conducted by measuring an absorbance at 535 nm. With respect to enzymatic activity, the amount of enzyme, which liberates reducing sugars corresponding to 1 μmole of glucose for 1 minute, was defined as 1 unit.
(§2) Sodium hydroxide- and phosphoric acid-swollen celluloses were prepared according to the method of Tomita et al. [Y. Tomita, H. Suzuki and K. Nisizawa, J. Biochem., 78, 499(1975)]. The reducing sugar liberated was determined in a similar manner to that of the method (a) except that substrate solutions containing cellulose substrates were used, and the reaction was conducted at 30° C.
(§3) The reducing sugar liberated was determined in a similar manner to that of the method (a) except that substrate solutions containing polysaccharides were used, and the reaction was conducted at 30° C.
(§4) A suitably diluted enzyme solution was added to a solution of 8 mM of a PNPG or PNPC substrate in 0.1M phosphate buffer of pH 7.0 to react them for 20 minutes at 30° C. The p-nitrophenol liberated was determined at 400 nm and the amount formed was calculated.
(§5) The enzyme is also active toward cellobiose, PNPG, PNPC, cellulose powder and phosphoric acid-swollen cellulose.

[2] = tested on: Carboxymethylcellulase 5812; test: Substrate specificity of Carboxymethylcellulase 5812 (hydrolytic activities, DNS method / p-nitrophenol release); type: biochemical, Bacillus sp. PKM-5812
Description: as §1, §2, §3, §4, §5

[3] = substrate 8 mM, 0.1M phosphate buffer pH 7.0, 30° C., activity toward CMC taken as 100%

## O=[N+]([O-])c1ccc(O[C@@H]2O[C@H](CO)[C@@H](O)[C@H](O)[C@H]2O)cc1 [PNPG, p-nitrophenyl-β-D-glucopyranoside]
[1]
  activity of the enzyme toward substrate: active
[1]; [3]
  Relative activity (%): 0.8%
[2]
  activity of the enzyme toward substrate: active
[2]; [3]
  Relative activity (%): 0.2%
